# Results from patent US8263638B2, “Dosing regimens for ion channel modulating compounds” (priority 2004, dated 2012).
# Where two headings read alike, the source gives them in different places.
# Assays:
# Type in all cases: in vivo, human
# [1] = Plasma levels in Atrial Arrhythmia Conversion Trial 1 (Example 6); details: for concentration at 10 min: human, plasma, intravenous
# Protocol: Plasma levels were obtained, where possible, for the patients at various time intervals following the initial infusion. The time intervals were 10 minutes (i.e., immediately after the initial infusion), 35 minutes (i.e., immediately after the second infusion where applicable), 50 minutes, 90 minutes, and 24 hours.
# [2] = tested on: atrial fibrillation of 3 hours to 45 days; assay: Conversion of recent onset atrial fibrillation to sinus rhythm (Example 3); details: for Number of Patients Converted to Sinus Rhythm / Patients (%) Converted to Sinus Rhythm: within 90 minutes
# Protocol: The primary endpoint of this study was the proportion of patients with atrial fibrillation duration of 3 hours to 7 days who had treatment-induced conversion to sinus rhythm within 90 minutes of treatment. Secondary endpoints included the time-to-conversion of atrial fibrillation to sinus rhythm in patients with atrial fibrillation duration of 3 hours to 7 days; the proportion of patients with atrial fibrillation of 8 to 45 days who had treatment-induced conversion to sinus rhythm within 90 minutes of treatment, and the proportion of patients in the entire group with atrial fibrillation of 3 hours to 45 days who had treatment-induced conversion to sinus rhythm within 90 minutes of treatment.
# 336 patients were randomized in a 2:1 ratio of COMPOUND A to placebo (221 patients received COMPOUND A and 115 patients received placebo) and stratified by atrial fibrillation duration of 3 hours to 7 days and 8 to 45 days.
# A first 10-minute infusion of a test compound (placebo or 3 mg/kg of COMPOUND A) was given to each patient. A second 10-minute infusion (placebo or 2 mg/kg of COMPOUND A) was given 15 minutes later if atrial fibrillation was not terminated. Safety was assessed by the incidence of adverse events, vital signs, laboratory data, ECG and holter monitoring.
# [3] = tested on: atrial fibrillation duration from 3 hours to 45 days; assay: Atrial Arrhythmia Conversion Trial 1, Phase III (Example 6); details: for median time to conversion: responders
# Protocol: This study was conducted to assess the efficacy and safety of COMPOUND A in the conversion of atrial fibrillation to sinus rhythm in humans. The study was a randomized, double-blind, placebo-controlled Phase III study.
# Patients were randomized in a 2:1 ratio (COMPOUND A:placebo) and stratified by atrial fibrillation duration. The entire group of patients (pts) had atrial fibrillation duration from 3 hours to 45 days. One subgroup had atrial fibrillation duration from 3 hours to 7 days. Another subgroup had atrial fibrillation duration from 8 days to 45 days.
# The primary endpoint of the study was the proportion of patients with atrial fibrillation duration of 3 hours to 7 days who had treatment-induced conversion of atrial fibrillation to sinus rhythm with 90 minutes. Secondary endpoints include the time-to-conversion of atrial fibrillation to sinus rhythm in patients with atrial fibrillation of 3 hours to 7 days and the proportion of patients with termination of atrial fibrillation within 90 minutes in the subgroup of patients with 8 days to 45 days of atrial fibrillation duration and in the entire group of patients with 3 hours to 45 days of atrial fibrillation duration.
# Dosing was as follows: Placebo or 3.0 mg/kg of COMPOUND A was administered by infusion over a 10 minute period, followed by a 15-minute observation period. If atrial fibrillation was not terminated, placebo or 2.0 mg/kg of COMPOUND A was adminstered by infusion over a 10 minute period.
# The patient population was randomized (n=[…]). […] There were 220 patients in the subgroup having 3 hours to 7 days atrial fibrillation. Of these 220 patients, 75 received placebo and 145 received COMPOUND A. There were 116 patients in the subgroup having 8 days to 45 days atrial fibrillation. Of these 116 patients, 40 received placebo and 76 received COMPOUND A.
# [4] = patients receiving both infusions
# [5] = patients receiving only a first infusion
# [6] = 30-day interval following administration
# [7] = AF 8-45 days, 3 mg/kg then 2 mg/kg
# [8] = AF 3 hr-7 days, 3 mg/kg then 2 mg/kg
# [9] = 30-day follow-up period after dosing, n = 221
# [10] = 24 hour period post-dosing, holter, n = 221
# [11] = 24 hour time period following dosing, n = 221
# [12] = non-responders with attempted cardioversion
smiles,measurement,setting,value
"COc1ccc(CCO[C@@H]2CCCC[C@H]2N2CC[C@@H](O)C2)cc1OC.Cl [COMPOUND A, (1R,2R)-2-[(3R)-hydroxypyrrolidinyl]-1-(3,4-dimethoxyphenethoxy)cyclohexane monohydrochloride]",concentration at 10 min,"[1]; 2 mg/kg, patients receiving both infusions (3.0 + 2.0 mg/kg), read-out: Plasma Concentration of COMPOUND A at 10 min., Mean",3910 ng/mL
same,concentration at 10 min,"[1]; 3 mg/kg, patients receiving only a first infusion (3.0 mg/kg), read-out: Plasma Concentration of COMPOUND A at 10 min., Mean",4280 ng/mL
same,concentration at 10 min,"[1]; 3 mg/kg, patients receiving only a first infusion, read-out: Plasma Concentration of COMPOUND A at 10 min., Maximum",11600 ng/mL
same,concentration at 10 min,"[1]; 3 mg/kg, patients receiving only a first infusion, read-out: Plasma Concentration of COMPOUND A at 10 min., Median",4080 ng/mL
same,concentration at 10 min,"[1]; 3 mg/kg, patients receiving only a first infusion, read-out: Plasma Concentration of COMPOUND A at 10 min., Minimum",0 ng/mL
same,concentration at 10 min,"[1]; patients receiving both infusions, read-out: Plasma Concentration of COMPOUND A at 10 min., Maximum",9330 ng/mL
same,concentration at 10 min,"[1]; patients receiving both infusions, read-out: Plasma Concentration of COMPOUND A at 10 min., Median",4070 ng/mL
same,concentration at 10 min,"[1]; patients receiving both infusions, read-out: Plasma Concentration of COMPOUND A at 10 min., Minimum",0 ng/mL
same,"Maximum Plasma Concentration of COMPOUND A, Maximum",[1]; [4],9330 ng/mL
same,"Maximum Plasma Concentration of COMPOUND A, Median",[1]; [4],4855 ng/mL
same,"Maximum Plasma Concentration of COMPOUND A, Minimum",[1]; [4],1430 ng/mL
same,"Maximum Plasma Concentration of COMPOUND A, Mean",[1]; patients receiving both infusions (3.0 + 2.0 mg/kg),4662 ng/mL
same,"Maximum Plasma Concentration of COMPOUND A, Maximum",[1]; [5],11600 ng/mL
same,"Maximum Plasma Concentration of COMPOUND A, Median",[1]; [5],4075 ng/mL
same,"Maximum Plasma Concentration of COMPOUND A, Minimum",[1]; [5],7 ng/mL
same,"Maximum Plasma Concentration of COMPOUND A, Mean",[1]; patients receiving only a first infusion (3.0 mg/kg),4466 ng/mL
same,patients with recurrence of atrial fibrillation (serious adverse event),[2]; [6],6%
same,patients with serious adverse events,[2]; [6],13%
same,converted patients relapsed within 24 hrs of administration,[2]; 3 hours to 7 days group converters,one
same,median time to conversion,"[2]; 3 hours to 7 days group, seventy-five converters",eleven
same,Number of Patients Converted to Sinus Rhythm,[2]; [7],6
same,Patients (%) Converted to Sinus Rhythm,[2]; [7],8%
same,Number of Patients Converted to Sinus Rhythm,[2]; [8],75
same,Patients (%) Converted to Sinus Rhythm,[2]; [8],52%
same,Number of Patients Converted to Sinus Rhythm,"[2]; Entire Group, AF 3 hr-45 days",83
same,Patients (%) Converted to Sinus Rhythm,"[2]; Entire Group, AF 3 hr-45 days",38%
same,drug-related Torsades de Pointes,[2]; in vivo,no cases
same,patients with transient alteration in taste,[2]; in vivo,30%
same,serious adverse events: Cardiac disorders (%),[3]; [9],10.0%
same,serious adverse events: Cardiac disorders (number),[3]; [9],22
same,serious adverse events: Infections and infestations (%),[3]; [9],1.4%
same,serious adverse events: Infections and infestations (number),[3]; [9],3
same,serious adverse events: Nervous system disorders (%),[3]; [9],0.0%
same,serious adverse events: Nervous system disorders (number),[3]; [9],0
same,"serious adverse events: Respiratory, thoracic and mediastinal disorders (%)",[3]; [9],1.8%
same,"serious adverse events: Respiratory, thoracic and mediastinal disorders (number)",[3]; [9],4
same,serious adverse events: Total (%),[3]; [9],13.1%
same,serious adverse events: Total (number),[3]; [9],29
same,serious adverse events: Vascular disorders (%),[3]; [9],1.4%
same,serious adverse events: Vascular disorders (number),[3]; [9],3
same,Monomorphic sustained ventricular tachycardia (%),[3]; [10],0.0%
same,Monomorphic sustained ventricular tachycardia (number),[3]; [10],0
same,Monomorphic unsustained aberrant condition (%),[3]; [10],1.4%
same,Monomorphic unsustained aberrant condition (number),[3]; [10],3
same,Monomorphic unsustained ventricular tachycardia (%),[3]; [10],0.9%
same,Monomorphic unsustained ventricular tachycardia (number),[3]; [10],2
same,Polymorphic sustained ventricular tachycardia (%),[3]; [10],0.0%
same,Polymorphic sustained ventricular tachycardia (number),[3]; [10],0
same,Polymorphic unsustained aberrant condition (%),[3]; [10],0.0%
same,Polymorphic unsustained aberrant condition (number),[3]; [10],0
same,Polymorphic unsustained ventricular tachycardia (%),[3]; [10],0.0%
same,Polymorphic unsustained ventricular tachycardia (number),[3]; [10],0
same,Torsades de Pointes (%),[3]; [10],0.0%
same,Torsades de Pointes (number),[3]; [10],0
same,Ventricular Rhythm >=5 beats: Total (%),[3]; [10],2.3%
same,Ventricular Rhythm >=5 beats: Total (number),[3]; [10],5
same,Ventricular escape rhythm (%),[3]; [10],0.0%
same,Ventricular escape rhythm (number),[3]; [10],0
same,treatment-emergent adverse event: Atrial fibrillation (%),[3]; [11],4%
same,treatment-emergent adverse event: Atrial fibrillation (number),[3]; [11],8
same,treatment-emergent adverse event: Cough (%),[3]; [11],5%
same,treatment-emergent adverse event: Cough (number),[3]; [11],11
same,treatment-emergent adverse event: Dysgeusia (%),[3]; [11],30%
same,treatment-emergent adverse event: Dysgeusia (number),[3]; [11],66
same,treatment-emergent adverse event: Hypotension (%),[3]; [11],6%
same,treatment-emergent adverse event: Hypotension (number),[3]; [11],14
same,treatment-emergent adverse event: Nausea (%),[3]; [11],9%
same,treatment-emergent adverse event: Nausea (number),[3]; [11],20
same,treatment-emergent adverse event: Paraesthesia (%),[3]; [11],11%
same,treatment-emergent adverse event: Paraesthesia (number),[3]; [11],24
same,treatment-emergent adverse event: Pruritus (%),[3]; [11],6%
same,treatment-emergent adverse event: Pruritus (number),[3]; [11],13
same,treatment-emergent adverse event: Sneezing (%),[3]; [11],16%
same,treatment-emergent adverse event: Sneezing (number),[3]; [11],36
same,responders converted after the first dosing,[3]; both the short duration subgroup and the entire group,76%
same,responders relapsed into atrial fibrillation in the first 24 hours post-dosing,[3]; in vivo,one
same,Electrical cardioversion was attempted (%),[3]; n = 221,43%
same,Electrical cardioversion was attempted (number),[3]; n = 221,96
same,Successfully converted by electrical cardioversion (%),[3]; [12],85%
same,Successfully converted by electrical cardioversion (number),[3]; [12],82
same,median time to conversion,[3]; entire group (3 hrs-45 days atrial fibrillation),11.5 min
same,median time to conversion,[3]; short duration subgroup (3 hrs-7 days atrial fibrillation),11 min
